In patent US20240173432A1, “Compositions and Methods for Treatment of Myotonic Dystrophy Type 1 with CRISPR/SluCas9” (Vertex Pharmaceuticals Incorporated, priority 2021, published 2024):

How the values were obtained:
[1] = tested on: CAG foci in primary DM1 patient myoblasts; test: Single-cut screening: CAG foci staining; type: cell-based, human; settings: single sgRNA; for % of CAG foci positive nuclei (DNA-PKi): DNA-PKi treated
Procedure, shortened: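 Primary DM1 patient myoblasts were PFA-fixed and hybridized with […] (1 ng/μL, 15 min at 80° C) in 30% formamide/2×SSC, followed by anti-MBNL1 immunostaining and Hoechst counterstain. CAG RNA foci were quantified by high-content confocal imaging after single-cut SuCas9 sgRNA editing.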

[2] = tested on: 3′ UTR of the human DMPK gene; test: Single-cut screening: indel editing efficiency by Sanger sequencing and ICE analysis in primary DM1 patient myoblasts; type: cell-based; settings: vehicle-treated samples; for Indel efficiency: single SluCas9 sgRNA RNP in primary DM1 patient myoblasts, Sanger sequencing and ICE analysis; for indel efficiency (Sanger sequencing and ICE analysis): single-cut, SluCas9 RNP, 72 hrs post nucleofection, wild-type allele
Procedure, shortened: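 Indels were estimated by ICE from Sanger chromatograms of PCR amplicons covering the DMPK 3′ UTR wild-type allele, using only vehicle-treated samples; sgRNAs with R2<0.9 are flagged. Samples came from primary DM1 patient myoblasts (2 × 10^5) harvested 72 h after nucleofection with 30 pmol SluCas9 and 90 pmol single sgRNA RNP.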

[3] = tested on: CUG foci in primary DM1 patient myoblasts; test: Single-cut screening: FISH staining of CUG RNA foci; type: cell-based, human; settings: single sgRNA, primary DM1 patient myoblasts; for % of CUG foci free nuclei (DNA-PKi): DNA-PKi treated
Procedure, shortened: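 CD56-purified primary DM1 patient myoblasts nucleofected with SluCas9:sgRNA RNP (30:90 pmol, single-cut), then DMSO or 3 μM DNA-PK inhibitor for 48 h. At 72 h post-nucleofection, cells fixed and stained for CUG foci with Cy3-PNA(CAG)5 probe (1 ng/μL, 80 °C), co-stained for MBNL1 and Hoechst, imaged by high-content confocal microscopy.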

CTCCACGCACCCCCACCTATCG (guide RNA; chemistry not fully specified) [SluD22]
% of CAG foci positive nuclei (DNA-PKi) [1]: 1.54% | % of CAG foci positive nuclei (Vehicle) [1]: 0.76% | Indel efficiency [2]: 21% | % of CUG foci free nuclei (DNA-PKi) [3]: 20.98% | % of CUG foci free nuclei (Vehicle) [3]: 7.86%

GTCCAGAGCTTTGGGCAGATGG (listed as DNA, chemistry not fully specified) [SluD100]
% of CAG foci positive nuclei (DNA-PKi) [1]: 3.35% | % of CAG foci positive nuclei (Vehicle) [1]: 2.15% | Indel efficiency [2]: 81% | indel efficiency (Sanger sequencing and ICE analysis) [2]: high editing IN4DEL efficiency | % of CUG foci free nuclei (DNA-PKi) [3]: 37.39% | % of CUG foci free nuclei (Vehicle) [3]: 22.06%

CCCAACAACCCCAATCCACGTT (guide RNA; chemistry not fully specified) [SluD70]
% of CAG foci positive nuclei (DNA-PKi) [1]: 2.45% | % of CAG foci positive nuclei (Vehicle) [1]: 2.33% | Indel efficiency [2]: 14% | % of CUG foci free nuclei (DNA-PKi) [3]: 30.47% | % of CUG foci free nuclei (Vehicle) [3]: 22.75%

cccctccctccccggccGCTAG (guide RNA; as printed in the source, key not given here) [SluU46]
% of CAG foci positive nuclei (DNA-PKi) [1]: 1.5% | % of CAG foci positive nuclei (Vehicle) [1]: 0.74% | Indel efficiency [2]: 41% | % of CUG foci free nuclei (DNA-PKi) [3]: 62.89% | % of CUG foci free nuclei (Vehicle) [3]: 14.46%

TCCAAAACGTGGATTGGGGTTG (guide RNA; chemistry not fully specified) [SluD74]
% of CAG foci positive nuclei (DNA-PKi) [1]: 1.55% | % of CAG foci positive nuclei (Vehicle) [1]: 2.27% | Indel efficiency [2]: 56% | % of CUG foci free nuclei (DNA-PKi) [3]: 31.37% | % of CUG foci free nuclei (Vehicle) [3]: 10.6%

GATGGAGGGCCTTTTATTCGCG (guide RNA; chemistry not fully specified) [SluD98]
% of CAG foci positive nuclei (DNA-PKi) [1]: 1.47% | % of CAG foci positive nuclei (Vehicle) [1]: 0.84% | Indel efficiency [2]: 0% | % of CUG foci free nuclei (DNA-PKi) [3]: 11.71% | % of CUG foci free nuclei (Vehicle) [3]: 11.21%

CCTGTAGCCTGTCAGCGAGTCG (listed as DNA, chemistry not fully specified) [SluD68]
% of CAG foci positive nuclei (DNA-PKi) [1]: 1.94% | % of CAG foci positive nuclei (Vehicle) [1]: 2.3% | Indel efficiency [2]: 72% | indel efficiency (Sanger sequencing and ICE analysis) [2]: high editing IN4DEL efficiency | % of CUG foci free nuclei (DNA-PKi) [3]: 25.13% | % of CUG foci free nuclei (Vehicle) [3]: 12.88%

GCACTTTGCGAACCAACGATAG (guide RNA; chemistry not fully specified) [SluD28]
% of CAG foci positive nuclei (DNA-PKi) [1]: 1.29% | % of CAG foci positive nuclei (Vehicle) [1]: 1.23% | Indel efficiency [2]: 48% | % of CUG foci free nuclei (DNA-PKi) [3]: 31.88% | % of CUG foci free nuclei (Vehicle) [3]: 11.31%

CAAAACGTGGATTGGGGTTGTT (guide RNA; chemistry not fully specified) [SluD72]
% of CAG foci positive nuclei (DNA-PKi) [1]: 2.33% | % of CAG foci positive nuclei (Vehicle) [1]: 2.62% | Indel efficiency [2]: 5% | % of CUG foci free nuclei (DNA-PKi) [3]: 28.82% | % of CUG foci free nuclei (Vehicle) [3]: 16.2%

GCCCCGGGCACTCAGTCTTCCA (guide RNA; chemistry not fully specified) [SluU13]
% of CAG foci positive nuclei (DNA-PKi) [1]: 1.07% | % of CAG foci positive nuclei (Vehicle) [1]: 1.11% | Indel efficiency [2]: 27% | % of CUG foci free nuclei (DNA-PKi) [3]: 43.12% | % of CUG foci free nuclei (Vehicle) [3]: 17.02%

TCAGTGCATCCAAAACGTGGAT (guide RNA; chemistry not fully specified) [SluD76]
% of CAG foci positive nuclei (DNA-PKi) [1]: 2.16% | % of CAG foci positive nuclei (Vehicle) [1]: 1.73% | Indel efficiency [2]: 20% | % of CUG foci free nuclei (DNA-PKi) [3]: 29.87% | % of CUG foci free nuclei (Vehicle) [3]: 15.78%

SluD101: downstream SluCas9 sgRNA, presumably SEQ ID NO 167; sequence not in the shown tables (guide AGTCCAGAGCTTTGGGCAGATG; listed as DNA, chemistry not fully specified)
% of CAG foci positive nuclei (DNA-PKi) [1]: 2.93% | % of CAG foci positive nuclei (Vehicle) [1]: 2.09% | Indel efficiency [2]: 38% | % of CUG foci free nuclei (DNA-PKi) [3]: 33.61% | % of CUG foci free nuclei (Vehicle) [3]: 21.35%

AGATGGAGGGCCTTTTATTCGC (guide RNA; chemistry not fully specified) [SluD99]
% of CAG foci positive nuclei (DNA-PKi) [1]: 2.23% | % of CAG foci positive nuclei (Vehicle) [1]: 0.73% | Indel efficiency [2]: 1% | % of CUG foci free nuclei (DNA-PKi) [3]: 22.16% | % of CUG foci free nuclei (Vehicle) [3]: 22.87%

CTTTTGCCAAACCCGCTTTTTC (guide RNA; chemistry not fully specified) [SluD41]
% of CAG foci positive nuclei (DNA-PKi) [1]: 1.44% | % of CAG foci positive nuclei (Vehicle) [1]: 1.33% | Indel efficiency [2]: 6% | % of CUG foci free nuclei (DNA-PKi) [3]: 37.15% | % of CUG foci free nuclei (Vehicle) [3]: 8.97%

gcccctccctccccggccGCTA (guide RNA; as printed in the source, key not given here) [SluU48]
% of CAG foci positive nuclei (DNA-PKi) [1]: 1.56% | % of CAG foci positive nuclei (Vehicle) [1]: 1.1% | Indel efficiency [2]: 11% | % of CUG foci free nuclei (DNA-PKi) [3]: 24.81% | % of CUG foci free nuclei (Vehicle) [3]: 20.76%

TGTCTTCGACTCCGGGGCCCCG (listed as DNA, chemistry not fully specified) [SluU06]
% of CAG foci positive nuclei (DNA-PKi) [1]: 1.1% | % of CAG foci positive nuclei (Vehicle) [1]: 1.01% | Indel efficiency [2]: 81% | indel efficiency (Sanger sequencing and ICE analysis) [2]: high editing IN4DEL efficiency | % of CUG foci free nuclei (DNA-PKi) [3]: 67.15% | % of CUG foci free nuclei (Vehicle) [3]: 25.49%

ggcccctccctccccggccGCT (guide RNA; as printed in the source, key not given here) [SluU50]
% of CAG foci positive nuclei (DNA-PKi) [1]: 1.59% | % of CAG foci positive nuclei (Vehicle) [1]: 0.75% | Indel efficiency [2]: 22% | % of CUG foci free nuclei (DNA-PKi) [3]: 48.15% | % of CUG foci free nuclei (Vehicle) [3]: 11.21%

TTTATTCGCGAGGGTCGGGGGT (guide RNA; chemistry not fully specified) [SluD91]
% of CAG foci positive nuclei (DNA-PKi) [1]: 4.23% | % of CAG foci positive nuclei (Vehicle) [1]: 1% | Indel efficiency [2]: 33% | % of CUG foci free nuclei (DNA-PKi) [3]: 21.28% | % of CUG foci free nuclei (Vehicle) [3]: 22.42%
